Consider 4 compounds from patent publication US7629002B2, “Antimicrobial polymeric compositions and method of treatment using them” (Chemeq Ltd., priority 2000, dated 2009).

For data set [1] the following is noted: in vivo.
From the text: Chickens treated each of the antimicrobials were compared with a control group according to the following procedure:
In each trial 20 Cob chickens (Line 53), day old were purchased from a commercial hatchery. They were weighed, sexed and randomly assigned into adjacent pens in a room of an isolated animal house. There was an even distribution of male and female chickens. Water and feed were available ad libitum. The diet was a commercial crumble (Chick Starter, Milne Feeds: 18% crude protein) with a coccidiostat present (125 ppm Dinitolomide).
Ten chickens were administered the formulation of 0.1% w/w of normally activated antimicrobial from Example 10a in the water for 14 days through static drinkers; dose rate of 30 mg/kg/day. The other ten chickens were the Control Group.
Both groups of chickens were weighed on days 0, 4, 7, 11 and 14. At the completion of the trial all chickens were euthanised, and the treated chickens were autopsied post mortem. A thorough gross examination of the thoracic and abdominal cavities was performed.
Another data set concerns A. niger. Nature of the data set: MKC of preservatives and synergy (Example 14). It counts as cell-based. The following applies: polymer 0.2% w/w. The procedure:
(§1) Overnight broths of challenge cultures were prepared and the Total Viable Count (TVC) of the overnight cultures was estimated.
(§2) The samples were serially diluted 1 to 1 using sterile normal saline (5 mL). Sterile Hard Water (SHW) was used as diluent when testing samples containing EDTA.
(§3) 1 part of each overnight culture was diluted in 9 parts diluent. The resulting diluted suspensions were used as the inocula.
(§4) Inoculate each sample dilution with 100 μL of the diluted overnight culture. (One culture per tube). Mix well.
(§5) The tubes were incubated for ≦24 hours at 37° C. (A. niger was incubated at 28° C. for ≦24 hours).
(§6) From each test tube, 1 mL was subcultured into 9 mL of recovery broth and mixed well (Recovery Broths: Nutrient Broth+3% Tween 80 (NBT) for polymeric antimicrobial and EDTA; Nutrient Broth+3% Tween 80+(NBTA) for glutaraldehyde and, Letheen Broth (LB) for methyl parabens).
(§7) The samples incubated at 37° C. for a further ≦48 hours. (28° C. for ≦5 days for A niger).
(§8) Each tube was examined for growth. All tubes were then subcultured onto selective agar and incubated for ≦24 hours at 37° C. (28° C. for ≦5 days for A. niger). Growth on selective agar was taken to confirm growth of the test organism.

The next data set has as its system C. albicans. Kind of data set: MKC of preservatives and synergy (Example 14). It counts as cell-based. The following applies: polymer 0.2% w/w, mix as ratio. The method, then:
as §1, §2, §3, §4, §5, §6, §7, §8

Another data set has as its system E. coli. Nature of the data set: MKC of preservatives and synergy (Example 14). In kind it is cell-based. The method, then: as §1, §2, §3, §4, §5, §6, §7, §8
A further data set deals with S. aureus. Kind of data set: MKC of preservatives and synergy (Example 14). It counts as cell-based. The procedure: as §1, §2, §3, §4, §5, §6, §7, §8
Another data set concerns P. aeruginosa. Kind of data set: MKC of preservatives and synergy (Example 14). It counts as cell-based. The procedure:
as §1, §2, §3, §4, §5, §6, §7, §8

For the compound “poly(2-propenal, 2-propenoic acid) [Example 10a]”, in data set [1], the “clinical or pathological signs of toxicity at gross examination post-mortem” value is on record as “no clinical or pathological signs of toxicity were evident”.

For `COC(=O)c1ccc(O)cc1` [Methyl Paraben], the MKC in the data set on A. niger (inoculum 2.2 × 10^7 cfu/mL, Methyl Paraben 1% w/w, in 80% w/w glycerol, mix as ratio) is 10000; in the data set on C. albicans (inoculum 1.1 × 10^7 cfu/mL, Methyl Paraben 1% w/w, in 80% w/w glycerol) it was 1250; in the data set on E. coli (inoculum 9.6 × 10^8 cfu/mL, polymer 0.2% w/w, Methyl Paraben 1% w/w, in 80% w/w glycerol, mix as ratio) it was 2500; in the data set with S. aureus (inoculum 1.3 × 10^9 cfu/mL, polymer 0.2% w/w, Methyl Paraben 1% w/w, in 80% w/w glycerol, mix as ratio), 2500; in the data set on P. aeruginosa (inoculum 1.8 × 10^9 cfu/mL, polymer 0.2% w/w, Methyl Paraben 1% w/w, in 80% w/w glycerol, mix as ratio), 1250.

Turning to `O=CCCCC=O` [Glutaraldehyde], the MKC was above 250 in the data set on A. niger (inoculum 3.3 × 10^7 cfu/mL, Glutaraldehyde 0.025% w/w start solutions, mix as ratio polymeric antimicrobial:preservative); 125 with C. albicans (inoculum 3.0 × 10^6 cfu/mL, Glutaraldehyde 0.025% w/w); 3.5 in the data set with E. coli (inoculum 1.6 × 10^9 cfu/mL, polymer 0.025% w/w, Glutaraldehyde 0.025% w/w); 7 in the data set on S. aureus (inoculum 1.5 × 10^9 cfu/mL, polymer 0.025% w/w, Glutaraldehyde 0.025% w/w); 31 with P. aeruginosa (inoculum 1.9 × 10^9 cfu/mL, polymer 0.025% w/w, Glutaraldehyde 0.025% w/w).

For the compound `O=C(O)CN(CCN(CC(=O)O)CC(=O)O)CC(=O)O` [EDTA], the MKC in the data set on A. niger (inoculum 3.0 × 10^7 cfu/mL, EDTA 0.1% w/w, mix as ratio polymeric antimicrobial:preservative) is above 1000; with C. albicans (inoculum 3.2 × 10^6 cfu/mL, EDTA 0.1% w/w) it was 1000; with E. coli (inoculum 1.0 × 10^9 cfu/mL, polymer 0.2% w/w, EDTA 0.1% w/w, mix as ratio), above 1000; with S. aureus (inoculum 1.3 × 10^9 cfu/mL, polymer 0.2% w/w, EDTA 0.1% w/w, mix as ratio), above 1000; in the data set on P. aeruginosa (inoculum 9.4 × 10^8 cfu/mL, polymer 0.2% w/w, EDTA 0.1% w/w, mix as ratio), 1000.
